Results on two molecules are retold here after EP4659739A9, “TOPICAL FORMULATION COMPRISING NON-COVALENT KERATIN-ACTIVE AGENT CONJUGATES FOR THERAPEUTIC USE” (Rigi Therapeutics AG, priority 2024, dated 2025).

Data set [1] can be described thus: Penetration kinetics of Mometasonfuroat, Franz diffusion cell, HPLC. Type of data set: in vitro ADME, human. The procedure: Um den Einfluss von monomerem beta-Keratin auf die Pharmakokinetik von Wirkstoffen nachzuweisen, wurde in einer halbfesten Cremematrix (Monovo® 1 mg/g Creme) gelöstes Mometasonfuroat, als Modellwirkstoff mit 2% Keratinpartikeln versetzt und zur Ausbildung von nicht-kovalenten Proteine-Wirkstoff-Konjugaten homogen verrührt und inkubiert. Zur Objektivierung der pharmakokinetischen Unterschiede wurde eine Diffusionskinetik der Formulierung ohne und mit Beimischung von Keratinpartikeln vergleichend bestimmt.
In der vorliegenden Studie wurde eine HPLC-Methode zur Quantifizierung von Mometasonfuroat in Proben aus der Penetrationsstudie verwendet. Es wurde eine analytische HPLC-UV-Methode entwickelt und validiert. Zur Bestimmung der Wiederfindung wurden dazu 3 Proben der Prüfformulierung mit 1,8 mL Lösungsmittel 1 h lang inkubiert (Laborschüttler, 150 U/min), anschließend zentrifugiert (13.000 U/min, 10 min) und gemessen. Die Wiederfindungsraten wurden mit den experimentell ermittelten Konzentrationen der Prüfgegenstände berechnet. Werte zwischen 95 % und 105 % wurden als unbeeinflusst und damit als korrekt angenommen.
Für jede Testformulierung wurden drei Humanhautproben, d. h. von drei verschiedenen Spendern untersucht. Jede Hautprobe ergab drei Stanzbiopsien zu drei verschiedenen Zeitpunkten, d. h. insgesamt […] Proben je Testformulierung. […]

Data set [2] deals with Chorion-Allantois-Membran. The experiment in a line: HET-CAM, preclinical tolerability. The arrangement: species or system Gallus gallus domesticus. The procedure: Als Screening hinsichtlich der Hautverträglichkeit der Keratinpartikel wurde dieses in eine halbfeste Formulierung eingearbeitet und an der Chorion-Allantois-Membran von acht- bis neuntägigen Gallus gallus domesticus Embryonen (Rasse: New Hampshire) getestet.
Die Hautverträglichkeit der Keratinpartikel wurde an der Chorion-Allantois-Membran von acht- bis neuntägigen Hühnerembryonen getestet. Befruchtete Hühnereier wurden hierfür acht bis neun Tage lang bei 37°C und 55 % Luftfeuchtigkeit bebrütet. Alle 12 Stunden wurden die Eier gewendet, ausgenommen die letzten 24 Stunden vor Versuchsbeginn. Die Öffnung der Eier wurde an den nach oben gerichteten Eierpolen durchgeführt, wofür die Eierschalen kreisrund (Ø 1,5 cm) geöffnet wurden. Nach dem Abnehmen der Eischalen wurden die Eihäute mit einer 37°C warmen 0,9%-igen NaCl-Lösung befeuchtet. Anschließend wurden unter der Sterilbank die äußeren Eihäute mittels Schere und Pinzette entfernt und die Chorion-Allantois-Membranen freigelegt. […] Die halbfeste Keratinpartikel-haltige Formulierung konnte nun an den gut ausgebildeten und unbeschädigten Blutgefäßen der Chorion-Allantois-Membranen aufgetragen und getestet werden. Das Testpräparat wurde an insgesamt sechs Eiern getestet, maximal 30 Minuten nach der Öffnung der Eier.
Im Rahmen der HET-CAM Untersuchungen wurden von dem Testpräparat (2,88 mg/ml kolloidale Keratin-Lösung in 0,5 % Hydoxyethylcellulose-Gel) je 200 µl auf die Chorion-Allantois-Membran appliziert und diese für insgesamt 300 Sekunden beobachtet. Während dieser Zeit wurden die Veränderungen an der Membran, hinsichtlich des Zeitpunktes des Auftretens (Irritationsscore, IS) und der Festlegung des Schweregrades zum Ende der Beobachtungszeit, dokumentiert. Hierbei wurden folgende Kriterien bewertet: Hämorrhagien (H) - das Auftreten von Blutungen; Gefäßlyse (L) - das Transparentwerden von Gefäßen und Koagulation (C) - das Stagnieren des Blutflusses als Zeichen der intravasalen Gerinnung. Als Negativkontrolle wurde steriles Wasser und als Positivkontrolle eine 1 %-ige Natriumlaurysulfat-Lösung eingesetzt. Die Berechnung des Irritationsscores (IS) erfolgte anhand der ICCVAM-Kriterien.
Als Bewertungskriterien des ISs wurden folgende Grenzwerte definiert:
Der Schweregrad von Veränderungen zum Ende des Beobachtungszeitraums wurde nach den folgenden Kriterien eingestuft:
Die Hämorrhagie (H) wurde entsprechend des Ausmaßes von Erythrozytenextravasaten den Kategorien halbquantitativ wie folgt zugeordnet: Einzelne Kapillarblutungen bei morphologisch intakten Kapillaren wurden als leichte, multiple Kapillarblutungen bei morphologisch intakten Kapillaren als mäßige und morphologisch geschädigte Kapillaren mit Kapillarblutungen oder Massenblutungen als schwere Hämorrhagie eingestuft. Vereinzelte transparente Kapillarabschnitte wurden als leichte, die Transparenz von ganzen Kapillaren als mäßige und das Auftreten von kompletten Gefäßlysen als schwere Lyse bewertet. Die Koagulation (C) wurde entsprechend des Ausmaßes von Koagulationsphänomenen den Kategorien halbquantitativ wie folgt zugeordnet: Einzelne Kapillarthrombosen bei morphologisch intakten Kapillaren wurden als leichte, multiple Kapillarthrombosen bei morphologisch intakten Kapillaren als mäßige und geschädigte Kapillaren mit langstreckigen Kapillarthrombosen als schwere C eingestuft. Die eingesetzten Hühnereier wurden nach einer Lagerung für 48 Stunden bei -20°C, hygienisch entsorgt. Tab.

[3] abbreviates: summary Tab. 7, mean severity after 300 s.

Take `C[C@@H]1C[C@H]2[C@@H]3CCC4=CC(=O)C=C[C@]4(C)[C@@]3(Cl)[C@@H](O)C[C@]2(C)[C@@]1(OC(=O)c1ccco1)C(=O)CCl` [Mometasonfuroat]: in data set [1], the “kutane Bioverfügbarkeit” value is “keinen relevanten Einfluss”.

For `CCCCCCCCCCCCOS(=O)(=O)O` [1 % Natriumlaurylsulfat-Lösung, Natriumlaurylsulfat], in data set [2] (summary Tab. 7), the IS-C is given as 6,01, the IS-Gesamt is 9,80, the IS-H is given as 2,89 and the IS-L is listed as 0,90. Moreover, in data set [2] (setting [3]), the SG-C is given as 3,00, the SG-H is listed as 1,67 and the SG-L is on record as 0,42.
